The results in this text go back to patent US7538129B2, “Diazonamide A analog” (Board of Regents, The University of Texas System, priority 2005, dated 2009).

Format in all cases: in vivo, mice
One data set has as its system HCT116 xenografts. In words: growth inhibition of HCT116 xenografts. The following applies: for % Max T/C / Log10 Tumor Cell Kill / #Tumor Free (day): HCT116 (colon). The method, then:
Details of the preparation of murine models containing xenografts of HCT116 cells or PC-3 cells are described in the section following these examples. After the tumors were grown, therapy utilizing Compound J or paclitaxel was initiated. […] In FIG. 4A, the *'s represent control mice, the squares represent 5 mg/kg Compound J; the diamonds represent 20 mg/kg Compound J; and the slanted line represents 20 mg/kg paclitaxel.
The details of the protocol for Examples 19 and 20 are as follows:
• PC3 prostrate tumor cells and HCT116 colon tumor cells (acquired from the tumor repository Division of Cancer Treatment and Diagnosis (DCTD) of the NCI • Complete RPMI Media • RPMI (Cat# 11875-085, Invitrogen) • 10% Heat-inactivated (30′ 56° C.) Fetal Bovine Serum (Cat# 100-106, Gemini Bio-Products • 2 mM L-glutamine (Cat# 25030-081, Invitrogen) • 0.1 mM MEM Non-Essential Amino Acids Solution (Cat#11140-050, Invitrogen) • 10 U/ml Penicillin/10 μg/ml Streptomycin (Cat#15140-122, Invitrogen) • 1 mM Sodium Pyruvate (Cat#l 1360-070) • Trypsin-EDTA (Cat#25300-054, Invitrogen) • Ca^2+/Mg^2+-free Phosphate Buffered Saline, 5% dextrose in water • Cell Culture Dish 150 mm×25 mm (Cat# 430599, Coming, Inc.) • 10 and 25 ml pipets, standard pipet-aid, p200 and p1000 pipette tips and standard pipetmen • Athymic NCr-nu/nu nude mice at 6-12 weeks of age, either sex (Strain code: 01B74, NCI Frederick Animal Production Program—suppliers include Charles River Labs and Taconic Farms). Female mice of approximately 7 weeks of age were utilized for existing experiments. • Standard 1 cc tuberculin syringe, 30G½ and 25G⅝ needles (Becton Dickinson) • Falcon 5 ml tubes (Cat#352054) • 50 and 15 ml disposable plastic conical tubes (Falcon or similar vendor) • Trypan Blue Solution (0.4%) (Cat#T8154, Sigma) • Hausser phase contrast hemacytometer (Cat# 02-671-54, Fisher) • Ice bucket • Balance for weighing mice (accurate to 0.2 g) • Vernier calipers • Vivarium facility free from known pathogens (nude mice should be housed in isolation from conventional mice if possible—separate rooms or micro-isolator cages equipped with individual air flow; all animal housing, bedding, water should be autoclaved prior to use; standard irradiated mouse chow should be used; animals should be changed out of cages within laminar flow hood; investigators handling mice should be suitably garbed—disposable gown, bonnet, booties, gloves, mask) • AB-5 (Compound J) compound • Ethyl alcohol, 200 proof (Aaper, MFD 041205) • Cremaphor (Cat# C5135, Sigma) • Paclitaxel (Cat#ANP0010, Polymed Therapeutics) Procedure: • 1) Rapidly thaw PC3 or HCT116 cells (if necessary) in 37° C. water bath. Transfer contents to 9ml complete RPMI media. Spin 5′ at 1200 rpm (240 Xg). Discard media and resuspend pellet in 8 ml complete RPMI media. Plate in 100 mm×25 mm cell culture dish in 5% CO2, 37° C. humidified incubator. • 2) Allow to grow for 5-10 days, splitting (aspirate media, wash with 3-5 ml PBS, add 1 ml trypsin-EDTA, incubate 3-5′ at 37° C., add media to desired volume and transfer to multiple plates) 1:8 to 1:10 every 3-4 days as necessary to allow cells to enter phase of logarithmic growth. • 3) When cells are growing well, begin to expand to 150 mm×25 mm dishes. We use 20 ml of media in a 150 mm dish and use 2 ml of trypsin for splitting. When nearly confluent, there should be 2×10^7 cells/150 mm dish. • 4) Plan ahead to time arrival of nu/nu mice such that they can acclimate to animal facility for 1 week prior to injection of tumor cells. […] Plan to inject 10 million cells/mouse and allow for loss of cells/volume during injection process. That is, if 30 mice are to be injected, plan to harvest cells sufficient for at least 35 injections—35×10 million cells=3.5×10^8 cells. In the existing HCT116 experiment, 7.5×10^6 cells were injected per mouse. Five mice per group were utilized for AB-5 treatment and four mice per group were utilized for the control and paclitaxel treatments. […]

The subject of data set [1] is neutrophils (GR1+ cells) in bone marrow. Description: neutrophil counts in bone marrow. The following applies: for neutrophil counts in bone marrow: 5 mg/kg; for neutrophil counts in bone marrow (number of GR1+ cells in one femu): 20 mg/kg, FIG. 5A. An excerpt:
In addition to measuring the affect on tumors, the effect of paclitaxel and Compound J on neutrophils in […] and blood were obtained. […] The data are provided as the number of GR1+ cells in one femu.
(§1) The details of the protocol for Examples 19 and 20 are as follows: […]

Data set [2] concerns neutrophils in peripheral blood. In words: neutrophil count in peripheral blood. The settings on record: for neutrophil count in peripheral blood, ANC (cell/ml): FIG. 5B.
Excerpt: as §1

Entries after “also recorded” stand apart in the source; their conditions may differ.

Turning to `CC(=O)O[C@H]1C(=O)[C@@]2(C)[C@H]([C@H](OC(=O)c3ccccc3)[C@]3(O)C[C@H](OC(=O)[C@H](O)[C@@H](NC(=O)c4ccccc4)c4ccccc4)C(C)=C1C3(C)C)[C@]1(OC(C)=O)CO[C@@H]1C[C@@H]2O` [paclitaxel, reference compound], in the data set with HCT116 xenografts (20 mg/kg, IV), the “% Max T/C” value came to 0.2% and the “Log10 Tumor Cell Kill” value is 3.2. Besides, in data set [1], the “neutrophil counts in bone marrow” value is recorded as “reduction of neutrophil counts” and the “neutrophil counts in bone marrow (number of GR1+ cells in one femu)” value is “reduction of neutrophil counts; also recorded: significantly lowered”. Moreover, in data set [2] (5 mg/kg), the “neutrophil count in peripheral blood, ANC (cell/ml)” value (“neutrophil count … (cell/ml)” for short) is reported as “reduction of neutrophil counts; also recorded: greatly lowered”. For the same compound, the “neutrophil count … (cell/ml)” value in data set [2] (20 mg/kg) is reported as “reduction of neutrophil counts; also recorded: greatly lowered”.

For the compound `CC(C)[C@H](O)C(=O)N[C@H]1Cc2ccc3c(c2)[C@]24C5=C(N=C(O5)[C@H](C(C)C)NC1=O)c1ncc(o1)-c1c[nH]c5cccc(c15)-c1cccc2c1NC4O3` (stereo in doubt) [Compound J], the “inhibition of growth of HCT116 xenografts” value in the data set on HCT116 xenografts (FIG. 4A, 20 mg/kg IV) is given as “comparable to paclitaxel; also recorded: slows tumor growth in a manner similar to paclitaxel”. In addition, the “#Tumor Free (day)” value is 0/5 in the data set with HCT116 xenografts (5 mg/kg, IP); 0/5 in the data set on HCT116 xenografts (5 mg/kg, IV); 0/5 with HCT116 xenografts (20 mg/kg, IP). In addition, the “% Max T/C” value in the data set on HCT116 xenografts (5 mg/kg, IP) was 41.9%; in the data set with HCT116 xenografts (5 mg/kg, IV) it was 26.5%; in the data set with HCT116 xenografts (20 mg/kg, IP) it was 9.3%; in the data set with HCT116 xenografts (20 mg/kg, IV), 0.2%. Moreover, the “Log10 Tumor Cell Kill” value in the data set on HCT116 xenografts (5 mg/kg, IP) was 0.37; in the data set with HCT116 xenografts (5 mg/kg, IV), 0.54; with HCT116 xenografts (20 mg/kg, IP), 1.0; in the data set with HCT116 xenografts (20 mg/kg, IV), 1.8. Further, in the data set on HCT116 xenografts (free of tumors for over five months), the “animals free of tumors” value is “four of 10”. For the same compound, the weight loss entry with HCT116 xenografts (tumor-free animals, over five months) was “no weight loss”. Also, the “neutrophil counts in bone marrow” value in data set [1] is “no effect”. For the same compound, the “neutrophil counts in bone marrow (number of GR1+ cells in one femu)” value in data set [1] is on record as “no effect”. Moreover, the “neutrophil proliferation or cell counts in vivo” value in data set [1] (FIG. 5A legend) and in data set [2] (FIG. 5B legend) was “no effect” in each case. For the same compound, the “neutrophil count … (cell/ml)” value in data set [2] (5 mg/kg) and in data set [2] (20 mg/kg) was “no effect; also recorded: not significantly affected” throughout.
